# System: MLL-AF9-bound DOT1L and AF4 in Molm-13 cells
# Assay: Co-immunoprecipitation with N-terminal MLL antibody
# Format: cell-based
# Conditions: 2 days
# Protocol: Next, we investigated how compound 1 affects these transcription cofactors in the nucleus, where they regulate gene expression. […] DOT1L inhibitor EPZ4777 [25] reduced the methylation levels of H3K79, but not other proteins (Figure 3B). […] In this regard, despite lack of activity against DOT1L, compound 1 can mimic EPZ4777 to reduce H3K79 methylation.
# Co-immunoprecipitation. 10^8 Molm-13 cells were treated with a compound or DMSO for 48 hr. Co-immunoprecipitation of the nuclear protein extracts (450 µg of total protein from 10^8 molm-13 cells) was performed using a Nuclear Complex Co-IP Kit (#54001, Active Motif). Briefly, 3 µg of MLL-N Rabbit mAb (#14689, Cell signaling) and 100 µL Protein G Agarose Beads (#37478, Cell signaling) were added and incubated with the nuclear extractions overnight at 4 °C. The Agarose beads with captured antibody and relevant protein complexes were isolated, washed and subjected to Western blot for protein detection.
smiles,measurement,value
CC(C)(C)c1ccc(-n2cc(C(=O)NC3CCNCC3)nc2-c2ccccc2)cc1 [Compound 1],MLL-AF9-bound DOT1L and AF4 (Co-IP),dose-dependent decrease of MLL-AF9-bound DOT1L and AF4
